In assay [1] the target is T1, hKv1.3 (Homo sapiens, UniProt P22001).
T1 construct: endogenous in cells
Nature of the assay: Whole-cell patch clamp of hKv1.3 currents in activated human T lymphocytes. It counts as cell-based. The settings on record: for time needed to reach equilibrium (steady-state) block of hKv1.3: 1 nM; for Hill coefficient (H): Hill equation fit of concentration-response on hKv1.3, n = 3-5; for Activity on hKv1.3: RP-HPLC fraction of His-tagged recombinant peptide, patch clamp; for recovery from block on perfusion with toxin-free solution: washout. As to the method:
Human venous blood from anonymized healthy donors was obtained from a blood bank. Peripheral blood mononuclear cells (PBMCs) were isolated by density gradient centrifugation using Histopaque1077 (Cat. No 10771). The obtained cells were resuspended in RPMI 1640 medium containing 10% fetal calf serum, 100 μg/mL penicillin, 100 μg/mL streptomycin, and […], seeded at a density of 5 × 10^5 cells per ml in a 24-well culture plate and grown in a 5% CO2 incubator at 37 °C for 2–5 days. Phytohemagglutinin A (Cat. No. L1668) was added to the medium at concentrations of 5, 7, and 10 μg/mL to increase the voltage-gated potassium ion channel expression.
Electrophysiological measurements were performed by using the patch clamp technique in a whole-cell configuration on voltage-clamped cells using the Axon Multiclamp 700B amplifier and the Axon Digidata1440 digitizer; the Clampex 10.7 software was used for data acquisition (all from Molecular Devices, Sunnyvale, CA, USA). Micropipettes were pulled from GC150F-15 borosilicate capillaries (Harvard Apparatus Kent, Edenbridge, UK), resulting in 3–4 MΩ resistance in the bath solution. The extracellular solution (bath solution) contained 145 mM NaCl, 5 mM KCl, 1 mM MgCl2, 2.5 mM CaCl2, 5.5 mM glucose, and 10 mM HEPES, with a pH of 7.35 and an osmolarity between 302 and 308 mOsM/L. The pipette filling solution (intracellular) consisted of 140 mM KF, 2 mM MgCl2, 1 mM CaCl2, 10 mM HEPES, and 11 mM EGTA, with a pH of 7.22 and an osmolarity of 295 mOsM/L. When the toxins were dissolved in bath solution at different molar concentrations, they were supplemented with 0.1 mg/mL bovine serum albumin (BSA). To record hKv1.3 in activated human T lymphocytes (Kv1.3 overexpression), 15 ms-long depolarizing pulses were applied at +50 mV from a holding potential of −120 mV every 15 s. Current traces were low-pass filtered by the analog four-pole Bessel filters of the amplifiers, and the sampling frequency was set at 20 kHz, which was at least twice that of the filter cutoff frequency. The control and test solutions were perfused into the cell through a gravity flow perfusion system. The excess bath solution was constantly removed with vacuum suction.
The effect of the toxin at a given molar concentration was calculated as the remaining current fraction (RCF = I/I0, where I0 is the peak current in the absence of the toxin and I is the peak current at the equilibrium block at a given toxin concentration). The data points on the dose-response curves represent the mean of 3–5 individual measurements. The data points were fitted with the Hill equation, RCF=KdH/KdH+toxin^H where [toxin] is the concentration of the toxin and H is the Hill coefficient. The best fit curve gave the Kd value of a given toxin.

A further assay has as its system Kv1.3 channel. The settings on record: ref 11 (charybdotoxin), 12 (noxiustoxin), 13 (Vm24), 14 (ShK), 15 (margatoxin), 16 (HsTx1); cited from earlier work. An excerpt: Voltage-gated potassium (Kv) channels regulate the selective efflux of K^+ through the plasma membrane, thereby shaping the action potentials in excitable cells and regulating many other cellular functions in non-excitable cells. The Kv channel family includes 12 subfamilies (Kv1-Kv12). The Kv1 (Shaker) subfamily consists of eight voltage-gated potassium channels belonging to the delayed rectifier class (Kv1.1–Kv1.8). Of this Kv subfamily, the Kv1.3 channel is mainly expressed in neurons and immune cells, and therefore, channel inhibition in these cells may be useful in the t ...

The target in assay [2] is T1, hKv1.3. The settings on record: 100 nM, hKv1.3 expressed in CHO cells; cited from earlier work. The procedure:
As mentioned earlier, the Kd values of Tag-Vm24 and Untag-AnTx were very similar to those reported for the native toxins. […] The Kd value of the native Ts6 was determined using Xenopus oocytes expressing rat Kv1.3 (rKv1.3). […] Differences in the type of cell expression system as well as the use of a channel from di ...

The target of a further assay is rat Kv1.3 (rKv1.3). As to conditions: rKv1.3 expressed in oocytes; cited from earlier work. The text has this: Anuroctoxin (AnTx, α-KTx 6.12) is a small peptide consisting of 35 amino acids (4109 Da). […] Ts6 (α-KTx 12.1) consists of 40 amino acids with a molecular mass of 4506 Da. Ts6 was isolated from the venom of the scorpion Tytyus serrulatus and inhibits hKv1. ... || In the preliminary experiments to evaluate the biological activity of the recombinant toxins, peptide concentrations slightly higher than the reported Kd values for the native toxins were used.

Positions of bridges follow the written chain, without caps; N, C: chain ends. No end group written: not given here.

What is called Kd is the free concentration of one partner at which half of the binding sites on the other are occupied at equilibrium, for simple one-to-one binding.

T1 sequence (P22001 whole entry): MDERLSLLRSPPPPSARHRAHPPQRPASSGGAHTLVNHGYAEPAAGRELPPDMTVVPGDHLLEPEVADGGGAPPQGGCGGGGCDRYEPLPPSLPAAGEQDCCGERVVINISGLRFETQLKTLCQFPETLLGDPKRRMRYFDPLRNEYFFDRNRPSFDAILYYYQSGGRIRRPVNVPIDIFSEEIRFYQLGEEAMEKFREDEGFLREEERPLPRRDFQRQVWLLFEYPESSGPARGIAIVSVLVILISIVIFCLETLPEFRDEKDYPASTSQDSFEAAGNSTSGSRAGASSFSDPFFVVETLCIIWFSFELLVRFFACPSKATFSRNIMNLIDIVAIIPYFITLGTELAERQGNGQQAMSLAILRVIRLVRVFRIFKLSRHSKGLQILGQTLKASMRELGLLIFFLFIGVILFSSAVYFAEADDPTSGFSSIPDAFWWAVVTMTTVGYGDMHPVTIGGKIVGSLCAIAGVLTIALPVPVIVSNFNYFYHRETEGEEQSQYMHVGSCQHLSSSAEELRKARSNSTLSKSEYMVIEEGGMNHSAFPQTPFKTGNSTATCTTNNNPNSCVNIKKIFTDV

Turning to `CSCC[C@@H]1NC(=O)[C@@H]2CSSC[C@H](NC(=O)[C@H](CCC(=O)O)NC(=O)[C@H](CCCCN)NC(=O)[C@H](CCC(N)=O)NC(=O)[C@H](CCCCN)NC(=O)[C@H](CC(=O)O)NC(=O)[C@H](CC(=O)O)NC(=O)[C@H](CC(=O)O)NC(=O)[C@H](CC(=O)O)NC(=O)[C@H](Cc3c[nH]cn3)NC(=O)[C@H](Cc3c[nH]cn3)NC(=O)[C@H](Cc3c[nH]cn3)NC(=O)[C@H](Cc3c[nH]cn3)NC(=O)[C@H](Cc3c[nH]cn3)NC(=O)[C@H](Cc3c[nH]cn3)NC(=O)[C@H](CCC(N)=O)NC(=O)[C@H](CC(C)C)NC(=O)[C@H](Cc3ccccc3)NC(=O)[C@@H](N)CCC(=O)O)C(=O)N[C@@H]([C@@H](C)O)C(=O)NCC(=O)N3CCC[C@H]3C(=O)N[C@@H](CCC(N)=O)C(=O)N[C@@H](Cc3c[nH]cn3)C(=O)N[C@H]3CSSC[C@H](NC(=O)[C@H](CCCCN)NC(=O)[C@H](CCCNC(=N)N)NC(=O)[C@H](CC(N)=O)NC1=O)C(=O)N[C@@H](CCCCN)C(=O)N[C@H]1CSSC[C@H](NC(=O)[C@H](Cc4ccccc4)NC(=O)[C@H](CC(N)=O)NC(=O)[C@H]([C@@H](C)O)NC3=O)C(=O)N[C@@H](CCCNC(=N)N)C(=O)N[C@@H](CCCCN)C(=O)N[C@@H](CC(N)=O)C(=O)N[C@@H](CCCCN)C(=O)N[C@@H](CSSC[C@@H](C(=O)N[C@@H](CCCCN)C(=O)O)NC(=O)[C@H](CC(N)=O)NC(=O)[C@H](Cc3ccccc3)NC1=O)C(=O)N[C@@H]([C@@H](C)O)C(=O)N[C@@H](Cc1c[nH]cn1)C(=O)NCC(=O)N[C@@H](CCCCN)C(=O)N2` [Tag-AnTx], on hKv1.3 [1], the “time needed to reach equilibrium (steady-state) block of hKv1.3” value is ~ 2.5 min, the “Hill coefficient (H)” value amounted to 0.91, the “Activity on hKv1.3” value is given as “Positive” and the “recovery from block on perfusion with toxin-free solution” value (from here on “recovery … with toxin-free solution”) is on record as “full recovery”.
In the case of `CSCC[C@@H]1NC(=O)[C@@H]2CSSC[C@H](NC(=O)[C@H](CCC(=O)O)NC(=O)[C@H](CCCCN)NC(=O)[C@@H](N)CCC(N)=O)C(=O)N[C@@H]([C@@H](C)O)C(=O)NCC(=O)N3CCC[C@H]3C(=O)N[C@@H](CCC(N)=O)C(=O)N[C@@H](Cc3c[nH]cn3)C(=O)N[C@H]3CSSC[C@H](NC(=O)[C@H](CCCCN)NC(=O)[C@H](CCCNC(=N)N)NC(=O)[C@H](CC(N)=O)NC1=O)C(=O)N[C@@H](CCCCN)C(=O)N[C@H]1CSSC[C@H](NC(=O)[C@H](Cc4ccccc4)NC(=O)[C@H](CC(N)=O)NC(=O)[C@H]([C@@H](C)O)NC3=O)C(=O)N[C@@H](CCCNC(=N)N)C(=O)N[C@@H](CCCCN)C(=O)N[C@@H](CC(N)=O)C(=O)N[C@@H](CCCCN)C(=O)N[C@@H](CSSC[C@@H](C(=O)N[C@@H](CCCCN)C(=O)O)NC(=O)[C@H](CC(N)=O)NC(=O)[C@H](Cc3ccccc3)NC1=O)C(=O)N[C@@H]([C@@H](C)O)C(=O)N[C@@H](Cc1c[nH]cn1)C(=O)NCC(=O)N[C@@H](CCCCN)C(=O)N2` [Untag-AnTx], at hKv1.3 [1] (whole-cell patch clamp, activated human peripheral T lymphocytes, 15 ms pulses to +50 mV from -120 mV every 15 s, Hill equation fitted to remaining current fraction, mean ± SEM, n = 3-5, read-out: Kd for block of hKv1.3), the Kd worked out at 0.73 nM.
With “EFHHHHHHDDDDKWCSTCLDLACGASRECYDPCFKAFGRAHGKCMNNKCRCYT (disulfide 15-18, 23-44, 29-49, 33-51) [Tag-Ts6]”, the “block of more than 50% of the Kv1.3 current” value at hKv1.3 [1] (100 nM, 6x-His-tagged peptide) is “could not be replicated”. In addition, at hKv1.3 [1], the “Hill coefficient (H)” value was 1.06, the “Activity on hKv1.3” value is listed as “Positive” and the “recovery … with toxin-free solution” value is “complete recovery”. Besides, the “time of onset of equilibrium block and complete recovery of peak current” value at hKv1.3 [1] (progressively increasing concentrations) was “a few seconds”.
As for “EFLQHHHHHHIEGRAAAISCVGSPECPPKCRAQGCKNGKCMNRKCKCYYC (disulfide 20-40, 26-45, 30-47, 35-50) [Tag-Vm24]”, at hKv1.3 [1] (10 pM), the “time needed to achieve equilibrium block of hKv1.3” value is on record as ~ 25 min. At hKv1.3 [1], the “time needed to reach equilibrium (steady-state) block of hKv1.3” value is on record as ~ 5 min, the “Hill coefficient (H)” value was 0.92, the “Activity on hKv1.3” value is “Positive” and the “recovery … with toxin-free solution” value is on record as “not reversible”.
charybdotoxin: in the assay on Kv1.3 channel, the “concentration range in which the toxin blocks the Kv1.3 channel” value (“concentration range” below) is on record as “nanomolar range”.
For the compound “margatoxin (TIINVKCTSPKQCLPPCKAQFGQSAGAKCMNGKCKCYPH; UniProt P40755 1-39, looked up)”, the “concentration range” value in the assay with Kv1.3 channel is on record as “picomolar range”.
Turning to “maurotoxin (VSCTGSKDCYAPCRKQTGCPNAKCINKSCKCYGC; UniProt P80719 1-34, looked up)”, in the assay with hKv1.3 [2], the “sensitivity of hKv1.3 to the toxin” value was “almost insensitive”. In addition, at rat Kv1.3 (rKv1.3), the equilibrium dissociation constant (Kd) was 180 nM.
For the compound “noxiustoxin: toxin that blocks the Kv1.3 channel (TIINVKCTSPKQCSKPCKELYGSSAGAKCMNGKCKCYNN; UniProt P08815 1-39, looked up)”, the “concentration range” value with Kv1.3 channel is given as “nanomolar range”.
